Test results: the kinase profiling compilation of Christmann-Franck et al. (2016)

What was measured:
Test in all cases: radiometric filter-binding kinase assay, Kinase HotSpot
Settings in all cases: compound 0.5 µM; ATP 10 µM
[1] = molecular target: CDK2 CCNA2 (human) (UniProt P24941+P20248)
[2] = molecular target: MAP3K9 (human) (UniProt P80192)
[3] = molecular target: MKNK2 (human) (UniProt Q9HBH9)
[4] = molecular target: MELK (human) (UniProt Q14680)
[5] = molecular target: BRSK1 (human) (UniProt Q8TDC3)
[6] = molecular target: CAMK2G (human) (UniProt Q13555)
[7] = molecular target: INSRR (human) (UniProt P14616)
[8] = molecular target: INSR (human) (UniProt P06213)
[9] = molecular target: PDPK1 (human) (UniProt O15530)
[10] = molecular target: PTK2 (human) (UniProt Q05397)
[11] = molecular target: WNK2 (human) (UniProt Q9Y3S1)
Sequence of WNK2 (human) (Q9Y3S1 whole entry, looked up): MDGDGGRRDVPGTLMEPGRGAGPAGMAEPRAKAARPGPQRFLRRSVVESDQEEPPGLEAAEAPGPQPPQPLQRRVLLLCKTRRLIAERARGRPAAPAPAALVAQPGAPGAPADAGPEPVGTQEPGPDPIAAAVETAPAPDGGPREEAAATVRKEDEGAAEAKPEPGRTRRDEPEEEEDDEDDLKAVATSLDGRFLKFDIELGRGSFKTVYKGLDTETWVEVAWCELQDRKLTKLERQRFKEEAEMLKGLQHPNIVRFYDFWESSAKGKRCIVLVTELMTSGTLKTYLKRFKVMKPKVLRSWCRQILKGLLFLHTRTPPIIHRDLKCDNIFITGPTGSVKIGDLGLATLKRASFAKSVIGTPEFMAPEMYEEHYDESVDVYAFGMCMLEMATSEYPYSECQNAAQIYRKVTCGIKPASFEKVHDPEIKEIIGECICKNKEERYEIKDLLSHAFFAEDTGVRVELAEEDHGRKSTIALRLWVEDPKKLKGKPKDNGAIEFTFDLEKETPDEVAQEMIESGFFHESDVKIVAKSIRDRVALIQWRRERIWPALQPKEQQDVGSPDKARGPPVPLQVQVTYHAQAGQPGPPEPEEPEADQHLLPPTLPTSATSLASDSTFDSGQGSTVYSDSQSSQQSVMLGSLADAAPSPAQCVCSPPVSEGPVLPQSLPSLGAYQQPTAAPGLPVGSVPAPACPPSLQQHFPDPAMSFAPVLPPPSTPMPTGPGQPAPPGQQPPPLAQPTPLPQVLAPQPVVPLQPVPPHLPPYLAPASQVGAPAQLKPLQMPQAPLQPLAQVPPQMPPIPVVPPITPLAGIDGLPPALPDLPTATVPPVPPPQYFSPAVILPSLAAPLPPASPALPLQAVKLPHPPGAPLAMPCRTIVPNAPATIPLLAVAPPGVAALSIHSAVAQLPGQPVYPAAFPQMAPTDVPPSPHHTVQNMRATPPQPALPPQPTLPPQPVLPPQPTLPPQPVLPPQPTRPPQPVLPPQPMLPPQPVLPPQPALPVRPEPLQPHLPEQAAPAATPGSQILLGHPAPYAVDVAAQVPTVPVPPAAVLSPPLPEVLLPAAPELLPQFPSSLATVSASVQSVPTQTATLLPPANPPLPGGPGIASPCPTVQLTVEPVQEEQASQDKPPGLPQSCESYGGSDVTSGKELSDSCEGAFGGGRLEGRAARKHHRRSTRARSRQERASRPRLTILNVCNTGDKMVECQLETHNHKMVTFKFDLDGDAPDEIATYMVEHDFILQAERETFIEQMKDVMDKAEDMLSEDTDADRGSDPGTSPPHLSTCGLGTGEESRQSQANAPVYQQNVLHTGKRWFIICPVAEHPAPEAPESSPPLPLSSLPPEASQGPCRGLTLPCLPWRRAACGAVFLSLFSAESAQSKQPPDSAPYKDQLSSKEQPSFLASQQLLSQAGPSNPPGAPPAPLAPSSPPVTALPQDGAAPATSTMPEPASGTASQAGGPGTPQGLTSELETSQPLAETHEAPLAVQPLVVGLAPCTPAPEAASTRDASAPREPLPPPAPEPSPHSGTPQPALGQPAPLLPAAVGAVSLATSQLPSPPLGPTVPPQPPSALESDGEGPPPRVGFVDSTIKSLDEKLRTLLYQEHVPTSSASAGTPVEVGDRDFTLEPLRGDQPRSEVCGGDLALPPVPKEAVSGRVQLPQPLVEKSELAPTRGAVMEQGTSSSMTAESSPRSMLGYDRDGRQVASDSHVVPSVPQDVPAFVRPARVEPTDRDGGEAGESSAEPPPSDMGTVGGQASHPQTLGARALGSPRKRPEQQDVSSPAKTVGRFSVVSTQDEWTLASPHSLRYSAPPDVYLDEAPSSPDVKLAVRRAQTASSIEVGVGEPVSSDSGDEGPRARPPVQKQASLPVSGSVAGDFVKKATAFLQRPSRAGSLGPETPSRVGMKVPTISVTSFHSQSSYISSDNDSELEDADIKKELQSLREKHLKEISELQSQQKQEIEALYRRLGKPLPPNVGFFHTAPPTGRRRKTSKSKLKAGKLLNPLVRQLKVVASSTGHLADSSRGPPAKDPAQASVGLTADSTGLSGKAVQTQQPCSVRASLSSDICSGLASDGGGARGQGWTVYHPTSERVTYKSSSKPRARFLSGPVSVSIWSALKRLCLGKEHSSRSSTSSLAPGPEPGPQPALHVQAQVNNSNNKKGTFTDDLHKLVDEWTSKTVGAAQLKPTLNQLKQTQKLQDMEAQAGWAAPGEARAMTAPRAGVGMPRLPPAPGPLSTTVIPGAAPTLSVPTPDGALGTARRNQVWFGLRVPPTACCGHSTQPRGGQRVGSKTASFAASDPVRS

[12] = molecular target: RPS6KA6 KD1 KD2 (human) (UniProt Q9UK32)
[13] = molecular target: PRKD1 (human) (UniProt Q15139)
[14] = molecular target: MARK2 (human) (UniProt Q7KZI7)
[15] = molecular target: PRKD3 (human) (UniProt O94806)
[16] = molecular target: CAMKK1 (human) (UniProt Q8N5S9)
[17] = molecular target: MUSK (human) (UniProt O15146)
[18] = molecular target: DCLK2 (human) (UniProt Q8N568)
[19] = molecular target: PLK2 (human) (UniProt Q9NYY3)
[20] = molecular target: AURKA (human) (UniProt O14965)
[21] = molecular target: PKN2 (human) (UniProt Q16513)
[22] = molecular target: CAMK4 (human) (UniProt Q16566)
[23] = molecular target: PASK (human) (UniProt Q96RG2)
[24] = molecular target: FRK (human) (UniProt P42685)
[25] = molecular target: CDC42BPB (human) (UniProt Q9Y5S2)
[26] = molecular target: PAK2 (human) (UniProt Q13177)
[27] = molecular target: PDGFRA (human) (UniProt P16234)
[28] = molecular target: RPS6KA3 KD1 KD2 (human) (UniProt P51812)
[29] = molecular target: TAOK1 (human) (UniProt Q7L7X3)
[30] = molecular target: MAP3K5 (human) (UniProt Q99683)
[31] = molecular target: IKBKB (human) (UniProt O14920)
[32] = molecular target: MAP3K10 (human) (UniProt Q02779)
[33] = molecular target: SRPK2 (human) (UniProt P78362)
Sequence of SRPK2 (human) (P78362 whole entry, looked up): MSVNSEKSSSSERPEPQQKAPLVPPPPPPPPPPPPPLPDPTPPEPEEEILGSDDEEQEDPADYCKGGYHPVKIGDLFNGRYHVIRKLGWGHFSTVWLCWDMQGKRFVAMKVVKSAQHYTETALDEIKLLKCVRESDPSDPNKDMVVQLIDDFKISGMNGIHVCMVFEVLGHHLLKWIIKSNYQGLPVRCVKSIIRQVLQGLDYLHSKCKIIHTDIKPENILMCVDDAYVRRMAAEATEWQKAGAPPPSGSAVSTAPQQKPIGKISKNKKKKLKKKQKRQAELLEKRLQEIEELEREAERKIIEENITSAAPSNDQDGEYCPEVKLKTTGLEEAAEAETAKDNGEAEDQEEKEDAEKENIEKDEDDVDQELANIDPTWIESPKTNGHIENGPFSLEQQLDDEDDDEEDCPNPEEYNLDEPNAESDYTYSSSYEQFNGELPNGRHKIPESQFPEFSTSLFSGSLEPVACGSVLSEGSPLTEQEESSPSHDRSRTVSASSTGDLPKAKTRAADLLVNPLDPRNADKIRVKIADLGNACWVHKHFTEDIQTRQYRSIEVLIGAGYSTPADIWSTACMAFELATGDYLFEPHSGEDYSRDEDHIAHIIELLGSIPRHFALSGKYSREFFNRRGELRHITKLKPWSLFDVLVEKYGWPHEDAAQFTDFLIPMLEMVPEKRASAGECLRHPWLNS

[34] = molecular target: CDK5 CDK5R1 p35 (human) (UniProt Q00535+Q15078)
[35] = molecular target: STK39 (human) (UniProt Q9UEW8)
[36] = molecular target: EPHA7 (human) (UniProt Q15375)
[37] = molecular target: MATK (human) (UniProt P42679)
[38] = molecular target: ABL1 (human) (UniProt P00519)
[39] = molecular target: AKT1 (human) (UniProt P31749)
[40] = molecular target: SIK2 (human) (UniProt Q9H0K1)
Sequence of SIK2 (human) (Q9H0K1 whole entry, looked up): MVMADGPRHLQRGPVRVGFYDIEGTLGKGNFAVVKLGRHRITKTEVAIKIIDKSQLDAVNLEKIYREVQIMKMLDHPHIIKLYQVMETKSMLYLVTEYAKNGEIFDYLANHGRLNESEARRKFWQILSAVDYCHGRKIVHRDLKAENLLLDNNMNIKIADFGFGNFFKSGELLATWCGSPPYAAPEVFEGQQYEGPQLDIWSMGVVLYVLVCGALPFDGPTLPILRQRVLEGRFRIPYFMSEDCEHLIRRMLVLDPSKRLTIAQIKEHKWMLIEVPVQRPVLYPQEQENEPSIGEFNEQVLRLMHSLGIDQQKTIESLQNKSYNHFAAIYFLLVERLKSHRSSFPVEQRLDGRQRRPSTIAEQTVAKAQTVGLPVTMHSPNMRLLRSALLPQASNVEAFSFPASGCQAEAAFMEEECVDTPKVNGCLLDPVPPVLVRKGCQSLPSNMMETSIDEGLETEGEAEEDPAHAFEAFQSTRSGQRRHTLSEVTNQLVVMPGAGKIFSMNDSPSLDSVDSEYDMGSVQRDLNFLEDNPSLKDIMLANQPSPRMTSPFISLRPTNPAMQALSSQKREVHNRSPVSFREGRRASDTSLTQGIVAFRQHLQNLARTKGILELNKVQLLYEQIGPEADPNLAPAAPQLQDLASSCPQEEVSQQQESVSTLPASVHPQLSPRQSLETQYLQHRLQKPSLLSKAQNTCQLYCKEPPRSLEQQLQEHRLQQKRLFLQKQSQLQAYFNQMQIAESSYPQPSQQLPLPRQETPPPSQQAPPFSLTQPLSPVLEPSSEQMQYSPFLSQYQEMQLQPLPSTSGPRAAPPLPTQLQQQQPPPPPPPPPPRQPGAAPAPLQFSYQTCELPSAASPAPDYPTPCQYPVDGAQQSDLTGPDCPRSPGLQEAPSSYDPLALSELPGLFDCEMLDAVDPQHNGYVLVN

[41] = molecular target: ACVR1B (human) (UniProt P36896)
[42] = molecular target: NEK9 (human) (UniProt Q8TD19)

Sequence of MELK (human) (Q14680 whole entry, looked up): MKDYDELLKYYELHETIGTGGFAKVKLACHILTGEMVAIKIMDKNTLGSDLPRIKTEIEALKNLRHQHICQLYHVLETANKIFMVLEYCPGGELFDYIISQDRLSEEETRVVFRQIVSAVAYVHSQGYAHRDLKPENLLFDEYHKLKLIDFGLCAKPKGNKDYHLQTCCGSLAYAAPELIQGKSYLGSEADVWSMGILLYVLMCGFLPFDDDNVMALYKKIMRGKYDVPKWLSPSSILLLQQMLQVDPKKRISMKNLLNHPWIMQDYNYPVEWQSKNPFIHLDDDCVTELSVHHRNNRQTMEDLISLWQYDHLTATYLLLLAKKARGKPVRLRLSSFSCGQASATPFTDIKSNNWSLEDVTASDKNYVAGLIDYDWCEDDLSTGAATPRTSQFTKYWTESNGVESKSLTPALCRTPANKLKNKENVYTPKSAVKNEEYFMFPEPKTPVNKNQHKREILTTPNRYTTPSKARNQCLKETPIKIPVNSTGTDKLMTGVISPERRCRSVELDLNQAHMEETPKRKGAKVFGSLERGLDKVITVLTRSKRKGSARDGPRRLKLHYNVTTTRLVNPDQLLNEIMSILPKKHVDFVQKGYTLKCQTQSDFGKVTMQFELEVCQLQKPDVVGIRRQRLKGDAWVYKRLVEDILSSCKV
Sequence of MKNK2 (human) (Q9HBH9 whole entry, looked up): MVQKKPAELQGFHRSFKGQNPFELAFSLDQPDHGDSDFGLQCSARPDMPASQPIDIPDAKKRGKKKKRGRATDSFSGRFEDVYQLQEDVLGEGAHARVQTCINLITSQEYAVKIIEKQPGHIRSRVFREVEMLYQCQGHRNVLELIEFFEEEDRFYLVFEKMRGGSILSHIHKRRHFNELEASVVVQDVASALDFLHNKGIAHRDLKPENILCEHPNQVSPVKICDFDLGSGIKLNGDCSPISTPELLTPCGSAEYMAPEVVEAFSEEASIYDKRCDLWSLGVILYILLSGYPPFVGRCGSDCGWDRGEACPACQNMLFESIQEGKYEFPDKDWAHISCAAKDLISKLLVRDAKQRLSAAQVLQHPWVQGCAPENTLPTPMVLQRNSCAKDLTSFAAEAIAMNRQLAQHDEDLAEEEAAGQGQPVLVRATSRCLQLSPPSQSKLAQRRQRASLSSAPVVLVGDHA

COc1cc2c(N3CCN(C(=O)Nc4ccc(OC(C)C)cc4)CC3)ncnc2cc1OCCCN1CCCCC1
residual activity [1]: 93.3% | residual activity [2]: 108% | residual activity [3]: 99% | residual activity [4]: 87.9% | residual activity [5]: 103% | residual activity [6]: 101% | residual activity [7]: 98.9% | residual activity [8]: 99.3% | residual activity [9]: 96.8% | residual activity [10]: 101% | residual activity [11]: 97.4% | residual activity [12]: 106% | residual activity [13]: 96.1% | residual activity [14]: 109% | residual activity [15]: 97.3% | residual activity [16]: 90.3% | residual activity [17]: 99.6% | residual activity [18]: 103% | residual activity [19]: 99.8% | residual activity [20]: 108% | residual activity [21]: 110% | residual activity [22]: 99.3% | residual activity [23]: 105% | residual activity [24]: 101% | residual activity [25]: 100% | residual activity [26]: 112% | residual activity [27]: 11.1% | residual activity [28]: 96.6% | residual activity [29]: 103% | residual activity [30]: 96.6% | residual activity [31]: 97.3% | residual activity [32]: 101% | residual activity [33]: 103% | residual activity [34]: 99.4% | residual activity [35]: 93.2% | residual activity [36]: 97.5% | residual activity [37]: 79.4% | residual activity [38]: 104% | residual activity [39]: 102% | residual activity [40]: 98.9% | residual activity [41]: 101% | residual activity [42]: 97.2%

CCOc1cc2ncnc(Nc3cccc(Br)c3)c2cc1OCC
residual activity [1]: 91.9% | residual activity [2]: 96.1% | residual activity [3]: 34.3% | residual activity [4]: 88.1% | residual activity [5]: 86.1% | residual activity [6]: 96.5% | residual activity [7]: 88.8% | residual activity [8]: 98.7% | residual activity [9]: 96.8% | residual activity [10]: 101% | residual activity [11]: 95.8% | residual activity [12]: 93.3% | residual activity [13]: 95.4% | residual activity [14]: 94.5% | residual activity [15]: 95.4% | residual activity [16]: 88.2% | residual activity [17]: 92.6% | residual activity [18]: 99.5% | residual activity [19]: 99.8% | residual activity [20]: 110% | residual activity [21]: 90% | residual activity [22]: 98.7% | residual activity [23]: 92.3% | residual activity [24]: 85.9% | residual activity [25]: 107% | residual activity [26]: 105% | residual activity [27]: 84.7% | residual activity [28]: 89.9% | residual activity [29]: 99.9% | residual activity [30]: 116% | residual activity [31]: 102% | residual activity [32]: 93.2% | residual activity [33]: 95.6% | residual activity [34]: 99.2% | residual activity [35]: 110% | residual activity [36]: 58.5% | residual activity [37]: 90.5% | residual activity [38]: 64.3% | residual activity [39]: 112% | residual activity [40]: 109% | residual activity [41]: 101% | residual activity [42]: 96.7%

COc1cc2ncnc(Nc3ccc(O)c(Br)c3)c2cc1OC
residual activity [1]: 88.7% | residual activity [2]: 80.1% | residual activity [3]: 18% | residual activity [4]: 83.4% | residual activity [5]: 81.6% | residual activity [6]: 95.2% | residual activity [7]: 96.8% | residual activity [8]: 92.4% | residual activity [9]: 96.6% | residual activity [10]: 99.5% | residual activity [11]: 102% | residual activity [12]: 57.8% | residual activity [13]: 70.1% | residual activity [14]: 94.5% | residual activity [15]: 72.8% | residual activity [16]: 95.8% | residual activity [17]: 78.2% | residual activity [18]: 101% | residual activity [19]: 104% | residual activity [20]: 83.1% | residual activity [21]: 97.2% | residual activity [22]: 95.6% | residual activity [23]: 57.9% | residual activity [24]: 74.7% | residual activity [25]: 98% | residual activity [26]: 90.6% | residual activity [27]: 88.9% | residual activity [28]: 69.4% | residual activity [29]: 93.3% | residual activity [30]: 98.6% | residual activity [31]: 88.1% | residual activity [32]: 98.2% | residual activity [33]: 63% | residual activity [34]: 99.6% | residual activity [35]: 87.4% | residual activity [36]: 46.1% | residual activity [37]: 98% | residual activity [38]: 79.4% | residual activity [39]: 94% | residual activity [40]: 92.2% | residual activity [41]: 105% | residual activity [42]: 104%

O=C1NC(=O)c2c1c1c3ccccc3[nH]c1c1[nH]c3cc(Br)ccc3c21
residual activity [1]: 52.5% | residual activity [2]: 7.57% | residual activity [3]: 44% | residual activity [4]: 46.6% | residual activity [5]: 21.5% | residual activity [6]: 99.5% | residual activity [7]: 85.8% | residual activity [8]: 86.4% | residual activity [9]: 66.1% | residual activity [10]: 91.8% | residual activity [11]: 92.1% | residual activity [12]: 32.4% | residual activity [13]: 51.9% | residual activity [14]: 40.4% | residual activity [15]: 49.5% | residual activity [16]: 99.1% | residual activity [17]: 88.4% | residual activity [18]: 87.2% | residual activity [19]: 93.7% | residual activity [20]: 60.7% | residual activity [21]: 88.7% | residual activity [22]: 96.2% | residual activity [23]: 86.3% | residual activity [24]: 93.9% | residual activity [25]: 84.1% | residual activity [26]: 101% | residual activity [27]: 97.6% | residual activity [28]: 46.3% | residual activity [29]: 68.4% | residual activity [30]: 94.9% | residual activity [31]: 92.2% | residual activity [32]: 70.4% | residual activity [33]: 96.2% | residual activity [34]: 44.1% | residual activity [35]: 90.7% | residual activity [36]: 95.3% | residual activity [37]: 97.3% | residual activity [38]: 83.3% | residual activity [39]: 101% | residual activity [40]: 80.4% | residual activity [41]: 101% | residual activity [42]: 83.6%
